Experiment [1] concerns human monocytic leukemia U937 cells. The experiment can be described thus: necroptosis assay in U937 cells. Type of experiment: cell-based. The settings on record: Homo sapiens, U-937, U937 cells; viability by cellular ATP (Cell Titer-Glo); read-out: pIC50, inhibited necrosis in U937 cells (converted). The essentials:
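Necroptosis was induced in human U937 or mouse L929 cells, and viability was quantified as cellular ATP with Cell Titer-Glo. Data are means±standard deviation.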

The target in another experiment is T1, RIP1 kinase (Homo sapiens, UniProt Q13546).
T1 sequence (Q13546 1-375 limits assumed): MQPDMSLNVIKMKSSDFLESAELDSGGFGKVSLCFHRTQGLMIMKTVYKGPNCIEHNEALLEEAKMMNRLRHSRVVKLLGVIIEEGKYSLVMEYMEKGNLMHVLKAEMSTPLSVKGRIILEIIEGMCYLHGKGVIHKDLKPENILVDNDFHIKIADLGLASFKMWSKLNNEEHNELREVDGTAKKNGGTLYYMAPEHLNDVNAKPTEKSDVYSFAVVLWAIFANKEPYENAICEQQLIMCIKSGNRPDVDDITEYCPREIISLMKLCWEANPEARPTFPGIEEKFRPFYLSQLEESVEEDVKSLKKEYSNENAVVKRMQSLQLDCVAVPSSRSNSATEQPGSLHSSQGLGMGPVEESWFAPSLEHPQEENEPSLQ
The experiment can be described thus: fluorescent polarization based binding assay. The settings on record: mean of a minimum of 2 experiments. The source says: A fluorescent polarization based binding assay was used to assess the activity of the compounds of this invention, the details of which are disclosed in International Patent Appln. No. PCT/IB2014/059004, now, International Patent Appln. Pub.

pIC50: −log10 of the molar value. Values joined by “and” are separate entries in the source; they are usually repeats but may differ in a detail not shown here. Identical values can stand only once.

One may read the pIC50 as the IC50 on a negative log10 scale, so that one unit is a factor of ten. Higher therefore signals a small IC50. With `COc1cc(N2CCC(C(=O)N3N=CC[C@H]3c3cc(F)ccc3F)CC2)ncn1` [Example 105, (S)-(5-(2,5-difluorophenyl)-4,5-dihydro-1H-pyrazol-1-yl)(1-(6-methoxypyrimidin-4-yl)piperidin-4-yl)methanone], the IC50 in experiment [1] is 1 to 100 nM. Further, the pIC50 on RIP1 kinase is 7.50 to 9.00 and 8.00 to 9.00.

Regarding `CCOC(=O)c1coc(N2CCC(C(=O)N3N=CC[C@H]3c3cc(F)cc(F)c3)CC2)n1` [Example 106, (S)-ethyl 2-(4-(5-(3,5-difluorophenyl)-4,5-dihydro-1H-pyrazole-1-carbonyl)piperidin-1-yl)oxazole-4-carboxylate], the IC50 in experiment [1] was 1 to 100 nM. Moreover, the pIC50 on RIP1 kinase is 7.50 to 9.00 and 8.00 to 9.00.

Turning to `Nc1nc(N2CCC(C(=O)N3N=CC[C@H]3c3cncc(F)c3)CC2)ncc1F` [Example 112, (S)-(1-(4-amino-5-fluoropyrimidin-2-yl)piperidin-4-yl)(5-(5-fluoropyridin-3-yl)-4,5-dihydro-1H-pyrazol-1-yl)methanone], the IC50 in experiment [1] was 1 to 100 nM. On RIP1 kinase, this compound had a pIC50 of 7.50 to 9.00.

On to `N#Cc1nccc(N2CCC(C(=O)N3N=CC[C@H]3c3cncc(F)c3)CC2)n1` [Example 115, (S)-4-(4-(5-(5-fluoropyridin-3-yl)-4,5-dihydro-1H-pyrazole-1-carbonyl)piperidin-1-yl)pyrimidine-2-carbonitrile], for which, in experiment [1], the IC50 is 1 to 100 nM. The same compound gave a negative-log IC50 (pIC50) at RIP1 kinase of 7.50 to 9.00.

In the case of `O=C(C1CCN(c2ccn3nccc3n2)CC1)N1N=CC[C@H]1c1cncc(F)c1` [Example 116, (S)-(5-(5-fluoropyridin-3-yl)-4,5-dihydro-1H-pyrazol-1-yl)(1-(pyrazolo[1,5-a]pyrimidin-5-yl)piperidin-4-yl)methanone], in experiment [1], the IC50 is 1 to 100 nM. In addition, the negative logarithm of the IC50 (pIC50) on RIP1 kinase was 7.50 to 9.00.

Regarding `O=C(C1CCN(c2ccc3nccn3n2)CC1)N1N=CC[C@H]1c1cncc(F)c1` [Example 117, (S)-(5-(5-fluoropyridin-3-yl)-4,5-dihydro-1H-pyrazol-1-yl)(1-(imidazo[1,2-b]pyridazin-6-yl)piperidin-4-yl)methanone], in experiment [1], the IC50 was 1 to 100 nM. On RIP1 kinase, this compound had a negative-log IC50 (pIC50) of 7.50 to 9.00.

For the compound `NC(=O)c1cnc(N2CCC(C(=O)N3N=CC[C@H]3c3cc(F)ccc3F)CC2)nc1` [Example 123, (S)-2-(4-(5-(2,5-difluorophenyl)-4,5-dihydro-1H-pyrazole-1-carbonyl)piperidin-1-yl)pyrimidine-5-carboxamide], in experiment [1], the IC50 is 1 to 100 nM. In addition, at RIP1 kinase, the negative logarithm of the IC50 (pIC50) was 7.50 to 9.00.

In the case of `NC(=O)c1nc(N2CCC(C(=O)N3N=CC[C@H]3c3cncc(F)c3)CC2)ncc1Cl` [Example 124, (S)-5-chloro-2-(4-(5-(5-fluoropyridin-3-yl)-4,5-dihydro-1H-pyrazole-1-carbonyl)piperidin-1-yl)pyrimidine-4-carboxamide], the IC50 in experiment [1] was 1 to 100 nM. For the same compound, the pIC50 at RIP1 kinase was 7.50 to 9.00.

For `O=C(NCCO)c1ccnc(N2CCC(C(=O)N3N=CC[C@H]3c3ccccc3)CC2)n1` [Example 126, (S)-N-(2-hydroxyethyl)-2-(4-(5-phenyl-4,5-dihydro-1H-pyrazole-1-carbonyl)piperidin-1-yl)pyrimidine-4-carboxamide], in experiment [1], the IC50 is 1 to 100 nM. On RIP1 kinase, this compound had a pIC50 of 7.50 to 9.00.

As to `O=C(C1CCN(c2ncc(F)c(OCCN3CCOCC3)n2)CC1)N1N=CC[C@H]1c1ccccc1` [Example 127, (S)-(1-(5-fluoro-4-(2-morpholinoethoxy)pyrimidin-2-yl)piperidin-4-yl)(5-phenyl-4,5-dihydro-1H-pyrazol-1-yl)methanone], the IC50 in experiment [1] was 1 to 100 nM. Further, the pIC50 on RIP1 kinase is 7.50 to 9.00 and 8.00 to 9.00.

On to `O=C(C1CCN(c2ncc(O)cn2)CC1)N1N=CC[C@H]1c1ccccc1` [Example 128, (S)-(1-(5-hydroxypyrimidin-2-yl)piperidin-4-yl)(5-phenyl-4,5-dihydro-1H-pyrazol-1-yl)methanone], for which the IC50 in experiment [1] is 1 to 100 nM. This compound gave a pIC50 at RIP1 kinase of 7.50 to 9.00.

As to `O=C(C1CCN(c2nccc(CO)n2)CC1)N1N=CC[C@H]1c1ccccc1` [Example 130, (S)-(1-(4-(hydroxymethyl)pyrimidin-2-yl)piperidin-4-yl)(5-phenyl-4,5-dihydro-1H-pyrazol-1-yl)methanone], the IC50 in experiment [1] is 1 to 100 nM. At RIP1 kinase, this compound had a pIC50 of 7.50 to 9.00.

On to `N#Cc1cnc(N2CCC(C(=O)N3N=CC[C@H]3c3cc(F)cc(F)c3)CC2)o1` [Example 133, (S)-2-(4-(5-(3,5-difluorophenyl)-4,5-dihydro-1H-pyrazole-1-carbonyl)piperidin-1-yl)oxazole-5-carbonitrile], for which the IC50 in experiment [1] was 1 to 100 nM. Further, the pIC50 at RIP1 kinase was 7.50 to 9.00 and 8.00 to 9.00.

For `NC(=O)c1coc(N2CCC(C(=O)N3N=CC[C@H]3c3cc(F)cc(F)c3)CC2)n1` [Example 134, (S)-2-(4-(5-(3,5-difluorophenyl)-4,5-dihydro-1H-pyrazole-1-carbonyl)piperidin-1-yl)oxazole-4-carboxamide], the IC50 in experiment [1] is 1 to 100 nM. The compound also showed a negative-log IC50 (pIC50) on RIP1 kinase of 7.50 to 9.00.

As to `N#Cc1coc(N2CCC(C(=O)N3N=CC[C@H]3c3cc(F)cc(F)c3)CC2)n1` [Example 135, (S)-2-(4-(5-(3,5-difluorophenyl)-4,5-dihydro-1H-pyrazole-1-carbonyl)piperidin-1-yl)oxazole-4-carbonitrile], the IC50 in experiment [1] was 1 to 100 nM. The pIC50 at RIP1 kinase was 7.50 to 9.00 and 8.00 to 9.00.

Regarding `N#Cc1coc(N2CCC(C(=O)N3N=CC[C@H]3c3ccccc3)CC2)n1` [Example 137, (S)-2-(4-(5-phenyl-4,5-dihydro-2H-pyrazole-1-carbonyl)piperidin-1-yl)oxazole-4-carbonitrile], the IC50 in experiment [1] was 1 to 100 nM. Moreover, the negative logarithm of the IC50 (pIC50) at RIP1 kinase was 7.50 to 9.00 and 8.00 to 9.00.

As for `N#Cc1cnc(N2CCC(C(=O)N3N=CC[C@H]3c3ccccc3)CC2)o1` [Example 138, (S)-2-(4-(5-phenyl-4,5-dihydro-1H-pyrazole-1-carbonyl)piperidin-1-yl)oxazole-5-carbonitrile], in experiment [1], the IC50 is 1 to 100 nM. Besides, on RIP1 kinase, the negative-log IC50 (pIC50) is 7.50 to 9.00 and 8.00 to 9.00.

`O=C(C1CCN(c2ncc3[nH]cnc3n2)CC1)N1N=CC[C@H]1c1cc(F)cc(F)c1` [Example 139, (S)-(1-(7H-purin-2-yl)piperidin-4-yl)(5-(3,5-difluorophenyl)-4,5-dihydro-1H-pyrazol-1-yl)methanone]: in experiment [1], the IC50 was 1 to 100 nM. This compound showed a pIC50 on RIP1 kinase of 7.50 to 9.00.

For the compound `O=C(C1CCN(c2nccc(C3=NCCN3)n2)CC1)N1N=CC[C@H]1c1ccccc1` [Example 140, (S)-(1-(4-(4,5-dihydro-1H-imidazol-2-yl)pyrimidin-2-yl)piperidin-4-yl)(5-phenyl-4,5-dihydro-1H-pyrazol-1-yl)methanone], the IC50 in experiment [1] is 1 to 100 nM. The pIC50 on RIP1 kinase is 7.50 to 9.00 and 8.00 to 9.00.

For the compound `CN1CCN(C(=O)c2ccnc(N3CCC(C(=O)N4N=CC[C@H]4c4ccccc4)CC3)n2)CC1` [Example 141, (S)-(4-methylpiperazin-1-yl)(2-(4-(5-phenyl-4,5-dihydro-1H-pyrazole-1-carbonyl)piperidin-1-yl)pyrimidin-4-yl)methanone], in experiment [1], the IC50 is 1 to 100 nM. The pIC50 on RIP1 kinase was 7.50 to 9.00.

For `CCN(CC)C(=O)c1ccnc(N2CCC(C(=O)N3N=CC[C@H]3c3ccccc3)CC2)n1` [Example 142, (S)-N,N-diethyl-2-(4-(5-phenyl-4,5-dihydro-1H-pyrazole-1-carbonyl)piperidin-1-yl)pyrimidine-4-carboxamide], the IC50 in experiment [1] was 1 to 100 nM. In addition, the pIC50 at RIP1 kinase was 7.50 to 9.00 and 8.00 to 9.00.

As to `CC(=O)N1CCC(NC(=O)c2ccnc(N3CCC(C(=O)N4N=CC[C@H]4c4ccccc4)CC3)n2)CC1` [Example 144, (S)-N-(1-acetylpiperidin-4-yl)-2-(4-(5-phenyl-4,5-dihydro-1H-pyrazole-1-carbonyl)piperidin-1-yl)pyrimidine-4-carboxamide], the IC50 in experiment [1] is 1 to 100 nM. The compound further showed a negative-log IC50 (pIC50) on RIP1 kinase of 7.50 to 9.00.

For `O=C(c1ccnc(N2CCC(C(=O)N3N=CC[C@H]3c3ccccc3)CC2)n1)N1CCOCC1` [Example 145, (S)-(1-(4-(morpholine-4-carbonyl)pyrimidin-2-yl)piperidin-4-yl)(5-phenyl-4,5-dihydro-1H-pyrazol-1-yl)methanone], the IC50 in experiment [1] is 1 to 100 nM. Further, the pIC50 on RIP1 kinase was 7.50 to 9.00.

As to `O=C(c1ccnc(N2CCC(C(=O)N3N=CC[C@H]3c3ccccc3)CC2)n1)N1CCNCC1` [Example 146, (S)-(5-phenyl-4,5-dihydro-1H-pyrazol-1-yl)(1-(4-(piperazine-1-carbonyl)pyrimidin-2-yl)piperidin-4-yl)methanone], the IC50 in experiment [1] was 1 to 100 nM. This compound gave a pIC50 on RIP1 kinase of 7.50 to 9.00.

On to `O=C(NC1CCNCC1)c1ccnc(N2CCC(C(=O)N3N=CC[C@H]3c3ccccc3)CC2)n1` [Example 147, (S)-2-(4-(5-phenyl-4,5-dihydro-1H-pyrazole-1-carbonyl)piperidin-1-yl)-N-(piperidin-4-yl)pyrimidine-4-carboxamide], for which the IC50 in experiment [1] was 1 to 100 nM. The pIC50 on RIP1 kinase was 7.50 to 9.00.

On to `O=C1NCCC1c1nc(N2CCC(C(=O)N3N=CC[C@H]3c3ccccc3)CC2)ncc1F` (stereo partly drawn) [Example 150, 3-(5-fluoro-2-(4-((S)-5-phenyl-4,5-dihydro-1H-pyrazole-1-carbonyl)piperidin-1-yl)pyrimidin-4-yl)pyrrolidin-2-one], for which the IC50 in experiment [1] is 1 to 100 nM. The pIC50 at RIP1 kinase is 7.50 to 9.00 and 8.00 to 9.00.

The values above are taken from patent US20190345138A1, “HETEROCYCLIC AMIDES AS KINASE INHIBITORS” (GlaxoSmithKline Intellectual Property Development Limited, priority 2016, published 2019).
